Measurements from article PMC10227015, “From a drug repositioning to a structure-based drug design approach to tackle acute lymphoblastic leukemia” (Nature Communications, 2023).
Read-outs that look alike come from different tables or passages of the source.

What was measured:
CCRF-CEM cell line = experiment: dCK cellular assay: CCRF-CEM proliferation in the presence of dT and dC; format: cell-based, human; conditions: for activity at 0.039 µM: 39 nM; for activity at 0.078 µM: 78 nM; for activity at 0.156 µM: 156 nM; for activity at 0.312 µM: 312 nM; for activity at 0.625 µM: 625 nM; for activity at 1.25 µM: 1250 nM; for activity at 2.5 µM: 2500 nM; for activity at 5 µM: 5000 nM; for activity at 20 µM: 20000 nM; for activity at 0.0195 µM: 19.5 nM; for activity at 40 µM: 40000 nM
How it was run: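 Two conditions in T-ALL CCRF-CEM cells: compound only, and compound with thymidine blocking de novo synthesis and deoxycytidine rescuing via dCK. Metabolic dye fluorescence (560/590 nm) gives % proliferation vs DMSO; IC50s, mean ± SD of at least three triplicate runs.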

dCK-C3S-S74E = experiment: Enzymatic assay (PK/LDH coupled), dC phosphorylation by dCK in the presence of ATP; format: biochemical, human; conditions: for IC50: presence of ATP, read-out: ENZYMATIC ASSAY IC50
Sequence of dCK-C3S-S74E (P27707 whole entry S74E, form open): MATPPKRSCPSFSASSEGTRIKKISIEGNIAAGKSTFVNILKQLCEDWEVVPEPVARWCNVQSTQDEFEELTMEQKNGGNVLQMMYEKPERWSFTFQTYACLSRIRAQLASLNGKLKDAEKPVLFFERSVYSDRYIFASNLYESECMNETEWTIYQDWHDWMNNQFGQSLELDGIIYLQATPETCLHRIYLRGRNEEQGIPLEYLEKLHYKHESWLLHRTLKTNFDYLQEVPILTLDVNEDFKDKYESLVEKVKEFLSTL
How it was run: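 Continuous PK/LDH-coupled readout tracked NADH fluorescence loss at 460 nm while 1 mM ATP and 100 µM dC were turned over by 100 nM (or 50 nM) dCK-C3S-S74E in HEPES pH 7.5 buffer with MgCl2, DTT and KCl. Linear-range slopes normalized to no-compound control; IC50 fitted by nonlinear regression across compound concentrations.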

[1] = Homo sapiens, CCRF-CEM, dT 200 µM + dC 1 µM, read-out: Cell proliferation of the CCRF-CEM cell line Mean (% prolif)
[2] = Homo sapiens, CCRF-CEM, 10000 nM, dT 200 µM + dC 1 µM, read-out: Cell proliferation of the CCRF-CEM cell line Mean (% prolif)
[3] = Homo sapiens, CCRF-CEM, dT 200 µM + dC 1 µM, 72 h, read-out: IC50 cell proliferation (dCK cellular assay)

Compound	Enzymatic activity (ATP) Mean (% activity) (dCK-C3S-S74E; 0.16 µM)	Enzymatic activity (ATP) Mean (% activity) (dCK-C3S-S74E; 0.31 µM)	Enzymatic activity (ATP) Mean (% activity) (dCK-C3S-S74E; 0.63 µM)	Enzymatic activity (ATP) Mean (% activity) (dCK-C3S-S74E; 1.25 µM)	Enzymatic activity (ATP) Mean (% activity) (dCK-C3S-S74E; 2.5 µM)	Enzymatic activity (ATP) Mean (% activity) (dCK-C3S-S74E; 5 µM)	Enzymatic activity (ATP) Mean (% activity) (dCK-C3S-S74E; 10 µM)	Enzymatic activity (ATP) Mean (% activity) (dCK-C3S-S74E; 20 µM)	IC50 (dCK-C3S-S74E; [dCK] = 100 nM)	IC50 (CCRF-CEM cell line; [3])	activity at 0.039 µM (CCRF-CEM cell line; [1])	activity at 0.078 µM (CCRF-CEM cell line; [1])	activity at 0.156 µM (CCRF-CEM cell line; [1])	activity at 0.312 µM (CCRF-CEM cell line; [1])	activity at 0.625 µM (CCRF-CEM cell line; [1])	activity at 1.25 µM (CCRF-CEM cell line; [1])	activity at 2.5 µM (CCRF-CEM cell line; [1])	activity at 5 µM (CCRF-CEM cell line; [1])	activity at 10 µM (CCRF-CEM cell line; [2])	activity at 20 µM (CCRF-CEM cell line; [1])	also measured
CCCN(c1nc(-c2nc(N)cc(N)n2)cs1)c1cc(-c2ccc(S(=O)(=O)N3CCN(C)CC3)cc2C(F)(F)F)ccc1C [OR0642]	43.5%	8.3%	4.2%	2.4%	-0.5%					2.2 nM											activity at 10 pM (CCRF-CEM cell line; Homo sapiens, CCRF-CEM, 0.01 nM, dT 200 µM + dC 1 µM, read-out: Cell proliferation of the CCRF-CEM cell line Mean (% prolif)): 90.6%; activity at 30 pM (CCRF-CEM cell line; Homo sapiens, CCRF-CEM, 0.03 nM, dT 200 µM + dC 1 µM, read-out: Cell proliferation of the CCRF-CEM cell line Mean (% prolif)): 93.3%; activity at 91 pM (CCRF-CEM cell line; Homo sapiens, CCRF-CEM, 0.091 nM, dT 200 µM + dC 1 µM, read-out: Cell proliferation of the CCRF-CEM cell line Mean (% prolif)): 88.7%; activity at 0.00027 µM (CCRF-CEM cell line; Homo sapiens, CCRF-CEM, 0.27 nM, dT 200 µM + dC 1 µM, read-out: Cell proliferation of the CCRF-CEM cell line Mean (% prolif)): 87.2%; activity at 0.00082 µM (CCRF-CEM cell line; Homo sapiens, CCRF-CEM, 0.82 nM, dT 200 µM + dC 1 µM, read-out: Cell proliferation of the CCRF-CEM cell line Mean (% prolif)): 79.7%; activity at 0.0025 µM (CCRF-CEM cell line; Homo sapiens, CCRF-CEM, 2.5 nM, dT 200 µM + dC 1 µM, read-out: Cell proliferation of the CCRF-CEM cell line Mean (% prolif)): 68.2%; activity at 0.0074 µM (CCRF-CEM cell line; Homo sapiens, CCRF-CEM, 7.4 nM, dT 200 µM + dC 1 µM, read-out: Cell proliferation of the CCRF-CEM cell line Mean (% prolif)): 43.1%; activity at 0.022 µM (CCRF-CEM cell line; Homo sapiens, CCRF-CEM, 22 nM, dT 200 µM + dC 1 µM, read-out: Cell proliferation of the CCRF-CEM cell line Mean (% prolif)): 24.9%; activity at 0.067 µM (CCRF-CEM cell line; Homo sapiens, CCRF-CEM, 67 nM, dT 200 µM + dC 1 µM, read-out: Cell proliferation of the CCRF-CEM cell line Mean (% prolif)): 18%; activity at 0.2 µM (CCRF-CEM cell line; Homo sapiens, CCRF-CEM, 200 nM, dT 200 µM + dC 1 µM, read-out: Cell proliferation of the CCRF-CEM cell line Mean (% prolif)): 14.6%; increased potency in the cell proliferation assay (CCRF-CEM cell line; compared with dCKi1): more than 1000 times; potency increase (CCRF-CEM cell line; compared with masitinib): more than 1000 times; Enzymatic activity (ATP) Mean (% activity) (dCK-C3S-S74E; 0.01 µM): 79.2%; Enzymatic activity (ATP) Mean (% activity) (dCK-C3S-S74E; 0.02 µM): 80.5%; Enzymatic activity (ATP) Mean (% activity) (dCK-C3S-S74E; 0.04 µM): 65.5%; Enzymatic activity (ATP) Mean (% activity) (dCK-C3S-S74E; 0.08 µM): 63.0%; IC50 (dCK-C3S-S74E; [dCK] = 50 nM (footnote A)): 106 ± 30 nM
Cc1ccc(-c2ccc(CCN3CCN(C)CC3)cc2)cc1Nc1nc(-c2nccc(N)n2)cs1 [OR0325]	87.3%	73.6%	56.4%	34.0%	19.3%	12.3%	11.6%	8.1%	826 ± 78 nM	1680 nM		100%	92.4%	88.7%	81.5%	61.9%	40.5%	11.6%	0.0667%	-0.0333%	activity at 40 µM (CCRF-CEM cell line; [1]): 0.3%; Enzymatic activity (ATP) Mean (% activity) (dCK-C3S-S74E; 40 µM): 4.4%
Cc1ccc(-c2ccc(CN3CCN(C)CC3)cc2)cc1Nc1nc(-c2nccc(N)n2)cs1 [OR0274]	86.8%	81.3%	62.9%	44.6%	27.8%	11.8%	11.9%	7.8%	1033 ± 10 nM	2100 nM		103%	94.8%	95.1%	90.1%	75%	55.5%	31%	7.8%	-0.0667%	activity at 40 µM (CCRF-CEM cell line; [1]): 0.167%; Enzymatic activity (ATP) Mean (% activity) (dCK-C3S-S74E; 40 µM): 5.0%

Further lines, with some results ahead:

Enzymatic activity (ATP) Mean (% activity) (dCK-C3S-S74E; 0.16 µM)	Enzymatic activity (ATP) Mean (% activity) (dCK-C3S-S74E; 0.31 µM)	Enzymatic activity (ATP) Mean (% activity) (dCK-C3S-S74E; 0.63 µM)	Enzymatic activity (ATP) Mean (% activity) (dCK-C3S-S74E; 1.25 µM)	Enzymatic activity (ATP) Mean (% activity) (dCK-C3S-S74E; 2.5 µM)	Enzymatic activity (ATP) Mean (% activity) (dCK-C3S-S74E; 5 µM)	Enzymatic activity (ATP) Mean (% activity) (dCK-C3S-S74E; 10 µM)	Enzymatic activity (ATP) Mean (% activity) (dCK-C3S-S74E; 20 µM)	IC50 (dCK-C3S-S74E; [dCK] = 100 nM)	IC50 (CCRF-CEM cell line; [3])	Compound	activity at 0.039 µM (CCRF-CEM cell line; [1])	activity at 0.078 µM (CCRF-CEM cell line; [1])	activity at 0.156 µM (CCRF-CEM cell line; [1])	activity at 0.312 µM (CCRF-CEM cell line; [1])	activity at 0.625 µM (CCRF-CEM cell line; [1])	activity at 1.25 µM (CCRF-CEM cell line; [1])	activity at 2.5 µM (CCRF-CEM cell line; [1])	activity at 5 µM (CCRF-CEM cell line; [1])	activity at 10 µM (CCRF-CEM cell line; [2])	activity at 20 µM (CCRF-CEM cell line; [1])	also measured
93.7%	94.8%	91.7%	77.3%	51.8%	30.3%	11.5%	3.9%	2660 ± 608 nM		Cc1ccc(NC(=O)c2ccc(CN3CCN(C)CC3)cc2)cc1Nc1nc(-c2nccc(N)n2)cs1 [dCKi1]	94.3%	88.7%	91%	94.4%	93.2%	98.2%	91.8%	67.7%	31%	8.1%	activity at 10 µM (CCRF-CEM cell line; Homo sapiens, CCRF-CEM, compound 10 µM + dT 111 µM + dC 1 µM, 72 h, read-out: Cell proliferation of the CCRF-CEM cell line Mean (% prolif)): 47%; IC50 (CCRF-CEM cell line; Homo sapiens, read-out: dCK CELLULAR ASSAY IC50 (nM), CCRF-CEM, 200 µM dT and 1 µM dC, read-out: dCK […] ASSAY IC50): 6950 ± 2530 nM; IC50 (CCRF-CEM cell line; Homo sapiens, CCRF-CEM, dT 200 µM + dC 1 µM, 72 h, read-out: IC50 cell proliferation): 6900 nM; Enzymatic activity (ATP) Mean (% activity) (dCK-C3S-S74E; 40 µM): 3.1%
43.5%	11.4%	0.0484%	1.1%	-0.9%	-8.7%	-3.1%		121 ± 21 nM	341 nM	CCCN(c1nc(-c2nc(N)cc(N)n2)cs1)c1cc(-c2ccc(CCN3CCN(C)CC3)cc2)ccc1C [OR0600]	91.6%	85.9%	76.2%	59.2%	40.4%	22.2%	5.5%	0.133%			activity at 0.00975 µM (CCRF-CEM cell line; Homo sapiens, CCRF-CEM, 9.75 nM, dT 200 µM + dC 1 µM, read-out: Cell proliferation of the CCRF-CEM cell line Mean (% prolif)): 104%; activity at 0.0195 µM (CCRF-CEM cell line; [1]): 98.6%; Enzymatic activity (ATP) Mean (% activity) (dCK-C3S-S74E; 0.04 µM): 92.1%; Enzymatic activity (ATP) Mean (% activity) (dCK-C3S-S74E; 0.08 µM): 78.6%
85.5%	56.9%	22.9%	5.3%	-9.9%	-2.1%	-7.8%		315 ± 50 nM	505 nM	CCCN(c1nc(-c2nccc(N)n2)cs1)c1cc(-c2ccc(CCN3CCN(C)CC3)cc2)ccc1C [OR0345]	85.8%	82%	72.4%	63.4%	51.4%	37.6%	19.3%	2.4%	0.333%		activity at 0.0195 µM (CCRF-CEM cell line; [1]): 90.6%; fold improvement of cellular IC50 (CCRF-CEM cell line; versus the preceding compound of the optimization): 3 fold; Enzymatic activity (ATP) Mean (% activity) (dCK-C3S-S74E; 0.04 µM): 96.0%; Enzymatic activity (ATP) Mean (% activity) (dCK-C3S-S74E; 0.08 µM): 95.1%
